Experimental data taken from patent US12479830B2, “Homopiperazinyl and homopiperidinyl quinazolin-4(3H)-one derivatives having multimodal activity against pain” (ESTEVE PHARMACEUTICALS, S.A., priority 2019, dated 2025).

What was measured:
[1] = target: Human α2δ-1 subunit of Cav2.2 calcium channel (Homo sapiens, UniProt P54289); experiment: Human α2δ-1 subunit of Cav2.2 calcium channel assay ([3H]-gabapentin binding); details: binding to the α2δ-1 subunit of voltage-gated calcium channels, expressed as Ki class; + also covers inhibition between 1% and 50%
Human α2δ-1 subunit of Cav2.2 calcium channel, sequence (P54289 25-1103): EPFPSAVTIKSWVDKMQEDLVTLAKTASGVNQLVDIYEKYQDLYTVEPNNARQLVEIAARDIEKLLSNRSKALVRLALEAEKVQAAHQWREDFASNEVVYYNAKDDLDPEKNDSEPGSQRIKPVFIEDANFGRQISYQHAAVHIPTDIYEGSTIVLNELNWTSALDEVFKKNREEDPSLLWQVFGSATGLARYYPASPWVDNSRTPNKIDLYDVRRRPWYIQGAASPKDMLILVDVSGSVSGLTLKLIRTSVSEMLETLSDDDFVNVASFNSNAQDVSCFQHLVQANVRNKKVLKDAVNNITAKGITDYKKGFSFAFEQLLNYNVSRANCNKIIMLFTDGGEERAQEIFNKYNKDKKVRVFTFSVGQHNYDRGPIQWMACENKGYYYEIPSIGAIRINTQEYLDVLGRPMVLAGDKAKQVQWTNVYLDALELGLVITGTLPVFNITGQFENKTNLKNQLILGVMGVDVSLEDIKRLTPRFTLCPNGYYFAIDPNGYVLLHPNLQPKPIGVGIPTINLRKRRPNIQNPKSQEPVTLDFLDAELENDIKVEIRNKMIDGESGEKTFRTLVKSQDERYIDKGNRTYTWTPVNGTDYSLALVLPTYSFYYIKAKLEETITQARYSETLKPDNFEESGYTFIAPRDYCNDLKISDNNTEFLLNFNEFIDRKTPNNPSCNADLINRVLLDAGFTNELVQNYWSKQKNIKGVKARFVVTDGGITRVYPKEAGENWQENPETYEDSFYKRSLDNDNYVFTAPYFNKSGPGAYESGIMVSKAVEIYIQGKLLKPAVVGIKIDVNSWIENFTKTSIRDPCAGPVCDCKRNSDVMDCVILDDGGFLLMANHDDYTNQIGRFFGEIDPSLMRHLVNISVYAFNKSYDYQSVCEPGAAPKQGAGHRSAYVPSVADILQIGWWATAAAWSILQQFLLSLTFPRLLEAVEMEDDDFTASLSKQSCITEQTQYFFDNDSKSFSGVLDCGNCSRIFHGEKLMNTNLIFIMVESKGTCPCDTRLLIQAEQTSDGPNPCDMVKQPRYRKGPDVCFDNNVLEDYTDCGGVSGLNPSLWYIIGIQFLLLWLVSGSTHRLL
Procedure: Human α2δ-1 Subunit of Cav2.2 Calcium Channel Assay
Human α2δ-1 enriched membranes (2.5 μg) were incubated with 15 nM of radiolabeled [^3H]-Gabapentin in assay buffer containing Hepes-KOH 10 mM. pH 7.4. NSB (non specific binding) was measured by adding 10 μM pregabalin. The binding of the test compound was measured at either one concentration (% inhibition at 1 or 10 μM) or five different concentrations to determine affinity values (Ki). After 60 min incubation at 27° C., binding reaction was terminated by filtering through Multiscreen GF/C (Millipore) presoaked in 0.5% polyethyleneimine in Vacuum Manifold Station, followed by 3 washes with ice-cold filtration buffer containing 50 mM Tris-HCl, pH 7.4. Filter plates were dried at 60° C. for 1 h and 30 μL of scintillation cocktail were added to each well before radioactivity reading. Readings were performed in a Trilux 1450 Microbeta radioactive counter (Perkin Elmer).

Human σ1 receptor = target: T1, Human σ1 receptor (Homo sapiens, UniProt Q99720); experiment: Human σ1 receptor radioligand assay ([3H](+)-pentazocine binding); details: binding to the σ1 receptor, expressed as Ki class; + also covers inhibition between 1% and 50%
T1 construct: expressed in transfected cells; host or cells: HEK-293
T1 sequence (Q99720 whole entry): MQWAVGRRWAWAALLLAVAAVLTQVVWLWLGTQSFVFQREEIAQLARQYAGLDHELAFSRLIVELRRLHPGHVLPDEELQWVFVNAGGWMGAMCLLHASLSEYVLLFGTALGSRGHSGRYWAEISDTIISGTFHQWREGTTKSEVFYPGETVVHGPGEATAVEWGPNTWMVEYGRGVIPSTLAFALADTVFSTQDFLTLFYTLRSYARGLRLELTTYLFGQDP
Procedure: Human σ1 Receptor Radioligand Assay
Transfected HEK-293 membranes (7 μg) were incubated with 5 nM of [^3H](+)-pentazocine in assay buffer containing Tris-HCl 50 mM at pH 8. NBS (non-specific binding) was measured by adding 10 μM haloperidol. The binding of the test compound was measured at either one concentration (% inhibition at 1 or 10 μM) or five different concentrations to determine affinity values (Ki). Plates were incubated at 37° C. for 120 minutes. After the incubation period, the reaction mix was then transferred to MultiScreen HTS, FC plates (Millipore), filtered and plates were washed 3 times with ice-cold 10 mM Tris-HCL (pH7.4). Filters were dried and counted at approximately 40% efficiency in a MicroBeta scintillation counter (Perkin-Elmer) using EcoScint liquid scintillation cocktail.

Row | SMILES | Ki [1] | Ki (Human σ1 receptor)
1 | CCCC(c1nc2cc(Br)c(F)cc2c(=O)n1CCC)N1CCCN(C)CC1 (stereo not drawn) [Example 31, 7-bromo-6-fluoro-2-(1-(4-methyl-1,4-diazepan-1-yl)butyl)-3-propylquinazolin-4(3H)-one] | < 500 nM | 500 to 1000 nM
2 | CCCC(c1nc2cc(Br)c(F)cc2c(=O)n1CC)N1CCCN(C)CC1 (stereo not drawn) [Example 33, 7-bromo-3-ethyl-6-fluoro-2-(1-(4-methyl-1,4-diazepan-1-yl)butyl)quinazolin-4(3H)-one] | < 500 nM | < 500 nM
3 | CCCC(c1nc2cc(F)c(Br)cc2c(=O)n1CCC)N1CCCNCC1 (stereo not drawn) [Example 34, 2-(1-(1,4-diazepan-1-yl)butyl)-6-bromo-7-fluoro-3-propylquinazolin-4(3H)-one] | < 500 nM | > 1000 nM
4 | CCC[C@H](c1nc2ccc(Br)cc2c(=O)n1CC)N1CCN(C)C[C@@H](C)C1 [Example 35, 6-bromo-2-((R)-1-((R)-4,6-dimethyl-1,4-diazepan-1-yl)butyl)-3-ethylquinazolin-4(3H)-one] | < 500 nM | > 1000 nM
5 | CCC[C@H](c1nc2ccc(Br)cc2c(=O)n1CC)N1CCN(C)C[C@H](C)C1 [Example 36, 6-bromo-2-((R)-1-((S)-4,6-dimethyl-1,4-diazepan-1-yl)butyl)-3-ethylquinazolin-4(3H)-one] | < 500 nM | 500 to 1000 nM
6 | CCC[C@@H](c1nc2ccc(Br)cc2c(=O)n1CC)N1CCN(C)C[C@H](C)C1 [Example 37, 6-bromo-2-((S)-1-((S)-4,6-dimethyl-1,4-diazepan-1-yl)butyl)-3-ethylquinazolin-4(3H)-one] | > 5000 nM | > 1000 nM
7 | CCC[C@@H](c1nc2ccc(Br)cc2c(=O)n1CC)N1CCN(C)C[C@@H](C)C1 [Example 38, 6-bromo-2-((S)-1-((R)-4,6-dimethyl-1,4-diazepan-1-yl)butyl)-3-ethylquinazolin-4(3H)-one] | > 5000 nM | > 1000 nM
8 | CCCC(c1nc2cc(C)c(Br)cc2c(=O)n1CC)N1CCCN(C)CC1 (stereo not drawn) [Example 39, 6-bromo-3-ethyl-7-methyl-2-(1-(4-methyl-1,4-diazepan-1-yl)butyl)quinazolin-4(3H)-one] | < 500 nM | 500 to 1000 nM
9 | CCCC(c1nc2c(F)cc(Br)cc2c(=O)n1CC)N1CCCN(C)CC1 (stereo not drawn) [Example 40, 6-bromo-3-ethyl-8-fluoro-2-(1-(4-methyl-1,4-diazepan-1-yl)butyl)quinazolin-4(3H)-one] | < 500 nM | 500 to 1000 nM
10 | CCCC(c1nc2ccc(Br)c(C)c2c(=O)n1CC)N1CCCNCC1 (stereo not drawn) [Example 41, 2-(1-(1,4-diazepan-1-yl)butyl)-6-bromo-3-ethyl-5-methylquinazolin-4(3H)-one] | > 5000 nM | > 1000 nM
11 | CCCC(c1nc2ccc(Br)cc2c(=O)n1CC)N1CCN(C)CC(F)(F)C1 (stereo not drawn) [Example 42, 6-bromo-2-(1-(6,6-difluoro-4-methyl-1,4-diazepan-1-yl)butyl)-3-ethylquinazolin-4(3H)-one] | > 5000 nM | > 1000 nM
12 | CCCC(c1nc2ccc(F)cc2c(=O)n1CC(C)C)N1CCCN(C)CC1 (stereo not drawn) [Example 43, 6-fluoro-3-isobutyl-2-(1-(4-methyl-1,4-diazepan-1-yl)butyl)quinazolin-4(3H)-one] | < 500 nM | < 500 nM
13 | CCCC(c1nc2cc(C)c(Br)cc2c(=O)n1CC)N1CCCNCC1 (stereo not drawn) [Example 44, 2-(1-(1,4-diazepan-1-yl)butyl)-6-bromo-3-ethyl-7-methylquinazolin-4(3H)-one] | < 500 nM | > 1000 nM
14 | CCCC(c1nc2cc(F)c(F)cc2c(=O)n1CC)N1CCCNCC1 (stereo not drawn) [Example 45, 2-(1-(1,4-diazepan-1-yl)butyl)-3-ethyl-6,7-difluoroquinazolin-4(3H)-one] | < 500 nM | > 1000 nM
15 | CCCC(c1nc2cc(F)c(F)cc2c(=O)n1CC)N1CCCN(CC)CC1 (stereo not drawn) [Example 46, 3-ethyl-2-(1-(4-ethyl-1,4-diazepan-1-yl)butyl)-6,7-difluoroquinazolin-4(3H)-one] | < 500 nM | < 500 nM
16 | CCCC(c1nc2ccc(Br)c(C)c2c(=O)n1CC)N1CCCN(CC)CC1 (stereo not drawn) [Example 47, 6-bromo-3-ethyl-2-(1-(4-ethyl-1,4-diazepan-1-yl)butyl)-5-methylquinazolin-4(3H)-one] | 500 to 5000 nM | < 500 nM
17 | CCCC(c1nc2cc(C)c(Br)cc2c(=O)n1CC)N1CCCN(CC)CC1 (stereo not drawn) [Example 48, 6-bromo-3-ethyl-2-(1-(4-ethyl-1,4-diazepan-1-yl)butyl)-7-methylquinazolin-4(3H)-one] | < 500 nM | < 500 nM

Row | SMILES | Ki [1] | Ki (Human σ1 receptor)
18 | CCCC(c1nc2c(Cl)cc(Br)cc2c(=O)n1CC)N1CCCN(C)CC1 (stereo not drawn) [Example 49, 6-bromo-8-chloro-3-ethyl-2-(1-(4-methyl-1,4-diazepan-1-yl)butyl)quinazolin-4(3H)-one] | > 5000 nM | 500 to 1000 nM
19 | CCCC(c1nc2ccc(F)cc2c(=O)n1CC(C)C)N1CCCN(CC)CC1 (stereo not drawn) [Example 50, 2-(1-(4-ethyl-1,4-diazepan-1-yl)butyl)-6-fluoro-3-isobutylquinazolin-4(3H)-one] | < 500 nM | < 500 nM
20 | CCCC(c1nc2ccc(Br)c(F)c2c(=O)n1CC)N1CCCN(CC)CC1 (stereo not drawn) [Example 52, 6-bromo-3-ethyl-2-(1-(4-ethyl-1,4-diazepan-1-yl)butyl)-5-fluoroquinazolin-4(3H)-one] | 500 to 5000 nM | < 500 nM
21 | CCCC(c1nc2cccc(Br)c2c(=O)n1CC)N1CCCN(C)CC1 (stereo not drawn) [Example 53, 5-bromo-3-ethyl-2-(1-(4-methyl-1,4-diazepan-1-yl)butyl)quinazolin-4(3H)-one] | 500 to 5000 nM | < 500 nM
22 | CCCC(c1nc2ccc(Br)cc2c(=O)n1CC(C)C)N1CCCN(C)CC1 (stereo not drawn) [Example 54, 6-bromo-3-isobutyl-2-(1-(4-methyl-1,4-diazepan-1-yl)butyl)quinazolin-4(3H)-one] | < 500 nM | 500 to 1000 nM
23 | CCCC(c1nc2c(F)cc(Br)cc2c(=O)n1CC)N1CCCNCC1 (stereo not drawn) [Example 55, 2-(1-(1,4-diazepan-1-yl)butyl)-6-bromo-3-ethyl-8-fluoroquinazolin-4(3H)-one] | 500 to 5000 nM | > 1000 nM
24 | CCCC(c1nc2ccc(Br)c(Cl)c2c(=O)n1CC)N1CCCN(C)CC1 (stereo not drawn) [Example 56, 6-bromo-5-chloro-3-ethyl-2-(1-(4-methyl-1,4-diazepan-1-yl)butyl)quinazolin-4(3H)-one] | 500 to 5000 nM | < 500 nM
25 | CCCC(c1nc2c(F)cc(Br)cc2c(=O)n1CC)N1CCCN(CC)CC1 (stereo not drawn) [Example 57, 6-bromo-3-ethyl-2-(1-(4-ethyl-1,4-diazepan-1-yl)butyl)-8-fluoroquinazolin-4(3H)-one] | 500 to 5000 nM | 500 to 1000 nM
26 | CCCC(c1nc2ccc(Br)cc2c(=O)n1CC(C)C)N1CCCN(CC)CC1 (stereo not drawn) [Example 58, 6-bromo-2-(1-(4-ethyl-1,4-diazepan-1-yl)butyl)-3-isobutylquinazolin-4(3H)-one] | < 500 nM | < 500 nM
27 | CCCC(c1nc2ccc(Br)c(F)c2c(=O)n1CC)N1CCCNCC1 (stereo not drawn) [Example 59, 2-(1-(1,4-diazepan-1-yl)butyl)-6-bromo-3-ethyl-5-fluoroquinazolin-4(3H)-one] | < 500 nM | > 1000 nM
28 | CCCC(c1nc2c(C)cc(Br)cc2c(=O)n1CC)N1CCCN(CC)CC1 (stereo not drawn) [Example 60, 6-bromo-3-ethyl-2-(1-(4-ethyl-1,4-diazepan-1-yl)butyl)-8-methylquinazolin-4(3H)-one] | > 5000 nM | < 500 nM
29 | CCCC(c1nc2cc(F)c(Br)cc2c(=O)n1CCC)N1CCCN(CC)CC1 (stereo not drawn) [Example 61, 6-bromo-2-(1-(4-ethyl-1,4-diazepan-1-yl)butyl)-7-fluoro-3-propylquinazolin-4(3H)-one] | < 500 nM | < 500 nM
30 | CCCC(c1nc2cc(Br)c(F)cc2c(=O)n1CCC)N1CCCN(CC)CC1 (stereo not drawn) [Example 62, 7-bromo-2-(1-(4-ethyl-1,4-diazepan-1-yl)butyl)-6-fluoro-3-propylquinazolin-4(3H)-one] | < 500 nM | < 500 nM
31 | CCCC(c1nc2cc(Br)c(F)cc2c(=O)n1CC)N1CCCN(CC)CC1 (stereo not drawn) [Example 63, 7-bromo-3-ethyl-2-(1-(4-ethyl-1,4-diazepan-1-yl)butyl)-6-fluoroquinazolin-4(3H)-one] | < 500 nM | < 500 nM
32 | CCCC(c1nc2c(Cl)cc(F)cc2c(=O)n1CC)N1CCCN(C)CC1 (stereo not drawn) [Example 64, 8-chloro-3-ethyl-6-fluoro-2-(1-(4-methyl-1,4-diazepan-1-yl)butyl)quinazolin-4(3H)-one] | > 5000 nM | > 1000 nM
33 | CCCC(c1nc2c(Cl)cc(F)cc2c(=O)n1CC)N1CCCN(CC)CC1 (stereo not drawn) [Example 65, 8-chloro-3-ethyl-2-(1-(4-ethyl-1,4-diazepan-1-yl)butyl)-6-fluoroquinazolin-4(3H)-one] | > 5000 nM | > 1000 nM
